Laboratory results as given in PMC12707362, “Targeting Aurora Kinases as Essential Cell‐Cycle Regulators to Deliver Multi‐Stage Antimalarials Against Plasmodium Falciparum” (Angewandte Chemie (International Ed. in English), 2025).
Structures can show the parent of a compound that is named as a salt. Where two headings read alike, the source gives them in different places. Each block holds one molecule with its values, some of them ahead of it.

Key:
[1] = system: P. falciparum drug-sensitive NF54 (PfNF54) asexual intra-erythrocytic parasites; assay: SYBR Green I proliferation assay, PfNF54 asexual blood stages; type: cell-based, Plasmodium falciparum; conditions: read-out: Pf NF54 ABS IC50
Description: Figure 1 Activity profile of Aur class anticancer inhibitors across the life cycle of Plasmodium falciparum parasites. a) Activity (IC50) of inhibitors (grouped based on specificity against human Aur) against P.falciparum drug‐sensitive (PfNF54) asexual intra‐erythrocytic parasites as measured with SYBR Green I fluorescence as an indicator of viability and proliferation. […] ABS, asexual blood stages of the parasite; HsAur, human Aur.
P. falciparum drug sensitive NF54 (PfNF54) and drug-resistant Dd2 (PfDd2, chloroquine, pyrimethamine and mefloquine resistant) strains were cultured in vitro in human O^+/A^+ erythrocytes (5% hematocrit) in complete medium at 2–5% parasitemia, 37 °C, shaking at 60 rpm under hypoxic conditions (90% N2, 5% O2 and 5% CO2). […] Gametocytogenesis was followed with daily media changes (including glucose) and ABS parasites removed with 50 mM N-acetylglucosamine (day 1–4 for stage II/III; days 3–7 for stage IV/V).
All inhibitors were dissolved in dimethyl sulfoxide (DMSO). […] Ring-stage ABS parasites (1% parasitemia, 1% hematocrit) were treated with compounds for 96 h at 37 °C with chloroquine disulphate (0.5 μM) as positive drug control. […] Luciferase activity was determined using a non-lysing D-luciferin substrate (1 mM in 0.1 M citrate buffer, pH 5.5, 100 μL) and bioluminescence was detected with a GloMax® - Multi Detection System with Instinct® software.

[2] = system: immature (stage II/III) gametocytes, P. falciparum 3D7elo1-pfs16-CBG99; assay: Luciferase reporter assay, immature gametocytes; type: cell-based, Plasmodium falciparum; conditions: 48 h; for inhibition at 5 µM: Plasmodium falciparum, read-out: Pf Early stage gametocyte %inhibition @ 5 µM
Method: (§1) P. falciparum drug sensitive NF54 (PfNF54) and drug-resistant Dd2 (PfDd2, chloroquine, pyrimethamine and mefloquine resistant) strains were cultured in vitro in human O^+/A^+ erythrocytes (5% hematocrit) in complete medium at 2–5% parasitemia, 37 °C, shaking at 60 rpm under hypoxic conditions (90% N2, 5% O2 and 5% CO2). Immature and mature gametocytes were produced from P. falciparum 3D7elo1-pfs16-CBG99 (kind gift from Pietro Alano, ISS, Italy) ^[1] as described^[2,3] by simultaneously applying nutrient starvation and decreasing hematocrit to induce >97% ring-stage ABS parasites (0.5% parasitemia, 6% hematocrit). Gametocytogenesis was followed with daily media changes (including glucose) and ABS parasites removed with 50 mM N-acetylglucosamine (day 1–4 for stage II/III; days 3–7 for stage IV/V).
(§2) All inhibitors were dissolved in dimethyl sulfoxide (DMSO). Antiplasmodium activity of selected anti-cancer inhibitors was determined on P. falciparum NF54 and Dd2 strains, measuring SYBR Green I fluorescence (485 nm excitation, 538 nm emission) as an indicator of proliferation^[4]. Ring-stage ABS parasites (1% parasitemia, 1% hematocrit) were treated with compounds for 96 h at 37 °C with chloroquine disulphate (0.5 μM) as positive drug control. The activity of the inhibitors was tested against immature (>95% stage II/III) and late-stage (>90% stage IV/V) gametocytes using a luciferase reporter assay on 3D7elo1-pfs16-CBG99 ^[1]. […] Luciferase activity was determined using a non-lysing D-luciferin substrate (1 mM in 0.1 M citrate buffer, pH 5.5, 100 μL) and bioluminescence was detected with a GloMax® - Multi Detection System with Instinct® software.

[3] = system: late-stage (stage IV/V) gametocytes, P. falciparum 3D7elo1-pfs16-CBG99; assay: Luciferase reporter assay, late-stage gametocytes; type: cell-based; conditions: Plasmodium falciparum, 48 h, read-out: Pf Late stage gametocyte %inhibition @ 5 µM
Method: as §1, §2

[4] = Cytotoxicity counter-screening (MTT), CHO; conditions: Chinese hamster, CHO cells
Method: (§3) HepG2 and CHO cells were maintained at 37 °C, under a humidified atmosphere of 5% CO2, in DMEM high glucose media (Gibco) supplemented with 10% heat-inactivated FBS and 1% (v/v) Penicillin-Streptomycin antibiotics. […] The supernatant was discarded, and the cell pellet was resuspended in 1 mL DMEM media for cell counting by Trypan Blue. To determine the toxicity, cells were resuspended and seeded at a concentration of 1x10^4 cells/well in a 96-well plate and incubated for 24 h^[9,10]. Cells were treated in duplicate with a 10-fold serial dilution starting at 100 ug/mL of inhibitor in new media. After 48 h incubation, the viable cells were measured using the MTT tetrazolium reduction assay, where sterile 25 µL of a 5 mg/mL MTT was added to each well and incubated for 4 h before the […] formazan crystals were dissolved with 100 µL DMSO (Merck) per well. The absorbance, a measure of intracellular reduction of MTT, was measured at 540 nm (Multiskan GO). Emetine (50 µM) was included as a positive drug control, and the background was subtracted from all data before being normalised to the untreated^[9,10].

[5] = system: Chinese Hamster Ovary (CHO) cells; assay: Cytotoxicity counter-screening (MTT), CHO; conditions: CHO CC50/PfNF54 IC50
Method: as §3

[6] = system: multidrug-resistant PfDd2 ABS parasites; assay: SYBR Green I proliferation assay, PfDd2 asexual blood stages; type: cell-based; conditions: Plasmodium falciparum, DD2, read-out: Pf Dd2 ABS IC50
Method: (§4) (B) Antiplasmodial activity of nine anticancer aurora kinase inhibitors (selected based on their PfNF54 ABS activity) against P. falciparum multidrug-resistant ABS parasites (PfDd2 and PfK1). (C) Kinobead competitive inhibition data.
as §1, §2

[7] = Cytotoxicity counter-screening (MTT), HepG2; conditions: human, HepG2 cells, HepG2 CC50, 48 h, MTT
Method: as §3

[8] = system: hepatocellular carcinoma (HepG2) cells; assay: Cytotoxicity counter-screening (MTT), HepG2; conditions: HepG2 CC50/PfNF54 IC50
Method: as §3

[9] = system: HepG2 and CHO cell lines versus PfNF54; assay: Selectivity of parasite versus mammalian cell lines; type: cell-based; conditions: mammalian cell line (CHO/HepG2) CC50 versus PfNF54 IC50; cell line not specified
[10] = system: P. berghei liver schizonts in HepG2-A16-CD81EGFP cells; assay: P. berghei (PbLuc) liver stage assay; type: cell-based; conditions: Plasmodium berghei; 48 h, PbLuc; read-out: Pb liver stage IC50
Description: as §4
Plasmodium berghei (Pb) sporozoites were obtained by dissecting the salivary glands of infected Anopheles stephensi mosquitoes. These were provided by The SporoCore, at the University of Georgia, GA, USA (SporoCore.uga.edu). The parasites utilised a GFP-Lucama1-eef1 reporter line^[5]. These engineered parasites, termed Pb-Luc, were used to infect HepG2-A16-CD81EGFP cells. HepG2-A16-CD81EGFP cells stably transformed to express a GFP-CD81 fusion protein^[6] were cultured at 37 °C in 5% CO2 in DMEM (Invitrogen, Carlsbad, USA) supplemented with 10% FBS (Corning, NY, USA), 1X Pen/Strep/Glu (Thermo Fisher Scientific, USA). Compounds were prepared as 10 mM solutions in DMSO, and 10 nL of each (resulting in a final DMSO concentration of 0.1% per well) was transferred into assay plates using an ECHO 650 (Beckman). Concentrations ranged from 10 µM to 0.5 nM. Atovaquone (0.1 µM) served as a positive control, while 0.1% DMSO was used as a negative control. Liver stage (PbLuc) screening has been previously described^[7]. Human hepatic cells (3 × 10^3; HepG2-A16-CD81-EGFP) suspended in 5 µL of DMEM medium ([…], supplemented with 5% FBS, 5× Pen/Strep/Glu) were seeded in 1536-well plates (Greiner BioOne) using the MultiFlo FX (Agilent) 20 h before infection. PbLuc sporozoites, isolated from the salivary glands of A. stephensi mosquitoes, were filtered twice through a 20 µm nylon pore cell strainer. The sporozoites were resuspended in screening media, counted with a hemocytometer, and diluted to a final concentration of 200 sporozoites per µL. Each well received 1,000 sporozoites in 5 µL, dispensed via the GNF Dispenser II (GNF Systems). […] Luminescence was measured immediately with the Pherastar FSX reader (BMG Labtech). Luminescence values were normalized using the positive and negative controls. EC50 values were calculated with CDD Vault (Burlingame, CA). […]

[11] = ring-stage ABS, 96 h, SYBR Green I
[12] = Plasmodium falciparum, NF54, 96 h, ring-stage ABS, 96 h, SYBR Green I

IC50 [1, 11]: 2.15 µM
Structure (SMILES): COc1cc2ncnc(Nc3ccc(NC(=O)c4ccccc4)cc3)c2cc1OC [Aki II, Aurora Kinase Inhibitor II]

IC50 [1, 12]: 3.31 ± 0.813 µM
Structure (SMILES): Nc1nc(Nc2ccc(S(N)(=O)=O)cc2)nn1C(=O)c1c(F)cccc1F [JNJ, JNJ-7706621]

IC50 [1, 11]: 2.41 µM
Structure (SMILES): CN(C)c1ccc(-c2nc3ncc(Cl)c(N4CCN(CC(=O)Nc5nccs5)CC4)c3[nH]2)cc1 [CCT-202, CCT-129202]

IC50 [1, 12]: 3.24 µM
Structure (SMILES): Cc1nn(C)cc1-c1nc2c(N3CCN(Cc4ccc(Cl)cc4)CC3)c(Cl)cnc2[nH]1 [CCT-736, CCT-241736]

IC50 [1, 12]: 3.09 µM
Structure (SMILES): Cc1nc(N)sc1-c1ccnc(Nc2ccc(N3CCOCC3)cc2)n1 [CYC-116]

IC50 [1, 11]: 1.66 µM
Structure (SMILES): Cc1cc(CN2CCN(c3c(Br)cnc4nc(-c5ccc(N6CCN(C)CC6)cc5)[nH]c34)CC2)no1 [CCT-690, CCT-137690]

IC50 [1, 12]: ≥ 5 µM
Structure (SMILES): COc1cc(Nc2ncc3c(n2)-c2ccc(Cl)cc2C(c2c(F)cccc2OC)=NC3)ccc1C(=O)O [Alisertib, Alisertib (MLN8237)]

The remaining lines, values behind:

Structure (SMILES): Cc1cc(Nc2nn(-c3ccccc3)c(=O)c3ccccc23)n[nH]1 [PH-p, Phthalazinone pyrazole]
IC50 [1, 11]: 2.72 µM

Structure (SMILES): CC(=O)NCC(=O)N1[C@@H]2CC[C@H]1c1ccc(Nc3ncc(C(F)(F)F)c(NC4CCC4)n3)cc12 [PF-35, PF-03814735]
IC50 [1, 11]: 2.12 ± 1.56 µM

Structure (SMILES): O=C(Nc1cccc(Cl)c1)Nc1ncc(CCNc2ncnc3ccsc23)s1 [SNS-314, SNS-314 Mesylate]
IC50 [1, 12]: 1.44 µM

Structure (SMILES): Cc1csc(-c2nnc(Nc3ccc(Oc4ncccc4-c4ccnc(N)n4)cc3)c3ccccc23)c1 [AMG 900]
IC50 [1, 12]: ≥ 5 µM

Structure (SMILES): O=C(O)c1ccc(Nc2ncc3c(n2)-c2ccc(Cl)cc2C(c2c(F)cccc2F)=NC3)cc1 [MLN8054]
IC50 [1, 12]: ≥ 5 µM

Structure (SMILES): CCn1cc(-c2ccnc3[nH]c(-c4cccc(CN(C)C)c4)cc23)c(-c2ccc(NC(=O)N(C)C)cc2)n1 [GSK-916, GSK-1070916]
Pf Early stage gametocyte %inhibition @ 5 µM [2]: 67,1 ± 7,0%
inhibition at 5 µM [2]: ~70%
inhibition at 5 µM [3]: 31.5%
CC50 at 48 h [4]: 5.3 µM
Selectivity index (SI) CHO [5]: 4.47
IC50 [6]: 0.404 µM
CC50 at 48 h [7]: 13.1 µM
Selectivity index (SI) HepG2 [8]: 11.03
IC50 [1, 12]: 1.18 µM
selectivity index (SI) towards the parasite [9]: < 10

Structure (SMILES): CCc1cccc(CC)c1NC(=O)N1Cc2n[nH]c(NC(=O)c3ccc(N4CCN(C)CC4)cc3)c2C1 [PHA-32, PHA-680632]
IC50 [1, 12]: 3.13 µM

Structure (SMILES): CO[C@@H](C(=O)N1Cc2n[nH]c(NC(=O)c3ccc(N4CCN(C)CC4)cc3)c2C1)c1ccccc1 [Danusertib]
inhibition at 5 µM [2]: 9.5%
inhibition at 5 µM [3]: 2.6%
CC50 at 48 h [4]: 33.2 µM
Selectivity index (SI) CHO [5]: 23.50
IC50 [6]: 1.3 µM
CC50 at 48 h [7]: 35.1 µM
Selectivity index (SI) HepG2 [8]: 24.8
IC50 [1, 12]: 1.41 µM
IC50 [10]: 6.22 µM

Structure (SMILES): O=C(O)[C@]1(Cc2cccc(Nc3nccs3)n2)CC[C@@H](Oc2cccc(Cl)c2F)CC1 [MK-5108]
IC50 ([1]; Plasmodium falciparum, NF54, 96 h): ≥ 5 µM
